Laboratory results: US11000033B2, “Ketone or oxime compound, and herbicide” (NISSAN CHEMICAL CORPORATION, priority 2014, dated 2021)

melting point: 82 to 85 °C
SMILES: CON=C(C)CC1CC(OC)=C(c2c(C)cc(OC)cc2C)C1=O (stereo not shown) [6-048]
